Test results reported in ChEMBL document CHEMBL1201862, “PubChem BioAssay data set” (2004).
Calls of active or inactive are those of the source.

What was measured:
Assay type in all cases: functional
[1] = target: Melanin-concentrating hormone receptor 1 (Homo sapiens, UniProt Q99705); assay: Late-stage fluorescence-based counterscreen for antagonists of the G-protein coupled receptor 7 (GPR7): cell-based dose response assay to identify antagonists of the melanin-concentrating hormone receptor 1 (MCHR1) Set 6.
Chain of Melanin-concentrating hormone receptor 1 (Q99705 whole entry): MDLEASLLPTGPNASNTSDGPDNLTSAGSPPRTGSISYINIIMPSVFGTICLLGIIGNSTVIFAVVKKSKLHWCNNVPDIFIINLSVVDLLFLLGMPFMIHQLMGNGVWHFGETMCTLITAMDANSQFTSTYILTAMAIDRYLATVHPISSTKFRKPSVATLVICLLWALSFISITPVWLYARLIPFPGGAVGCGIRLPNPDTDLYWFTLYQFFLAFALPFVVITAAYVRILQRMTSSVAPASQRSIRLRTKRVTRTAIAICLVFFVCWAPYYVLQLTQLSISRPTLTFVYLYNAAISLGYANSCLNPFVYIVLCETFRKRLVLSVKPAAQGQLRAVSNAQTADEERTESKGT

[2] = target: T1, Neuropeptides B/W receptor type 1 (Homo sapiens, UniProt P48145); assay: human NPBW1 receptor blockade, IC50 – cell-based, fluorescence, dose response, set 6, late-stage follow-up (AID 588583)
T1 sequence (P48145 whole entry): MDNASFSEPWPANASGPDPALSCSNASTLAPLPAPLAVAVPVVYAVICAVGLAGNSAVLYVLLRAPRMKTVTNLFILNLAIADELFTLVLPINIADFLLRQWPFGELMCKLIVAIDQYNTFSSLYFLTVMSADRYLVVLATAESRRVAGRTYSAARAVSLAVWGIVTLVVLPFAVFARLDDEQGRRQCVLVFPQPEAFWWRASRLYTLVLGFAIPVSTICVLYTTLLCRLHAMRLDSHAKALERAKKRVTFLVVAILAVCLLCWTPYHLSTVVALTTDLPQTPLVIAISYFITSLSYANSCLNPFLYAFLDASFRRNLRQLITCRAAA

[3] = target: T2, High affinity choline transporter 1 (Homo sapiens, UniProt Q9GZV3); assay: human choline transporter blockers, potency – cell-based, 10-point CRC, membrane potential dye, dose response (AID 588401);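 note: membrane potential dye fluorescence of choline-evoked depolarization via CHT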
T2 sequence (Q9GZV3 whole entry): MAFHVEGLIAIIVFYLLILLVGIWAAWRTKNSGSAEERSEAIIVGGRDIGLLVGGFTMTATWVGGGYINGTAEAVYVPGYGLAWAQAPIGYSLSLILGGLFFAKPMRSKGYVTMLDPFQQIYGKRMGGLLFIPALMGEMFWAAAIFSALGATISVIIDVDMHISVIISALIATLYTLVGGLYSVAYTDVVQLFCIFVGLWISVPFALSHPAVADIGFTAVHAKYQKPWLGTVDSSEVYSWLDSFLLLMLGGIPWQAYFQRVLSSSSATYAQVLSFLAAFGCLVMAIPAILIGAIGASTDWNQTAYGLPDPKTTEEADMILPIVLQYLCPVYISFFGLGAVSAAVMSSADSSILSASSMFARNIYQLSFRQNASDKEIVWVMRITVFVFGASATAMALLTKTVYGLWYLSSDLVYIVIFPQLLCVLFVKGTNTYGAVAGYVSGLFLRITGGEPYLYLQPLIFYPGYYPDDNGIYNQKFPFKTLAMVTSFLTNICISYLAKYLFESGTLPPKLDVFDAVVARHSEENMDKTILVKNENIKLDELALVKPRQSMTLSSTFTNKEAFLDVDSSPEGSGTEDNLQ

[4] = non-specific 3'UTR reporter inhibition in Clone20-Shn3RL – cell-based, Renilla luciferase, cherry-picked, counter-screen for Shn3 inhibitor project, dose response (AID 624133)
[5] = target: T3, Protein RecA (Mycobacterium tuberculosis, UniProt P9WHJ3); assay: Fluorescence Cell-Free Homogeneous Dose Retest to Identify Inhibitors of RecA-Intein Splicing Activity. [Related pubchem assays (depositor defined):AID2097, AID2223, AID489010, AID492950]
T3 sequence (P9WHJ3 whole entry): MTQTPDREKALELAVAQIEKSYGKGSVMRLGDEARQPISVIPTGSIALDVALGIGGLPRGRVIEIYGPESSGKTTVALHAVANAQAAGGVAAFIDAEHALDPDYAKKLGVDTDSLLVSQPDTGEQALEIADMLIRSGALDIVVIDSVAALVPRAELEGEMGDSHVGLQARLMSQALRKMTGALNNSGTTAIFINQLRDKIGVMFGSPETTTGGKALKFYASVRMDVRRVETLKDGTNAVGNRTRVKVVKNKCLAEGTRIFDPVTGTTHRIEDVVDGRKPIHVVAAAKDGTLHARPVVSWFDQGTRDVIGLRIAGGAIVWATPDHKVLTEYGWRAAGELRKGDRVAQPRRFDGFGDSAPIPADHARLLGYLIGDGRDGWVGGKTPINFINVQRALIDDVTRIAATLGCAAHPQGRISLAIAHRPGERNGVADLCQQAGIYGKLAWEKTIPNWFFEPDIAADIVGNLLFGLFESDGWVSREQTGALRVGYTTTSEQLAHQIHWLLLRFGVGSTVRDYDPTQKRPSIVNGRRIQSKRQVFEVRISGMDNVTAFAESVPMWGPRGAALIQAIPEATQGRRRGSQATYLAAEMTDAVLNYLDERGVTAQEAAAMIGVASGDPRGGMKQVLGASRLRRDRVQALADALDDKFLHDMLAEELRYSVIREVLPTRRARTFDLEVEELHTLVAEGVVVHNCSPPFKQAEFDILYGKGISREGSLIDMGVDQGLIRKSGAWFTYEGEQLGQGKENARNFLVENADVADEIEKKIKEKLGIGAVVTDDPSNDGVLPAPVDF

[6] = target: T4, Replicative DNA helicase DnaB (Mycobacterium tuberculosis, UniProt P9WMR3); assay: DnaB intein splicing inhibitors, dose response, biochemical, cell-free fluorescence (AID 449749)
T4 sequence (P9WMR3 whole entry): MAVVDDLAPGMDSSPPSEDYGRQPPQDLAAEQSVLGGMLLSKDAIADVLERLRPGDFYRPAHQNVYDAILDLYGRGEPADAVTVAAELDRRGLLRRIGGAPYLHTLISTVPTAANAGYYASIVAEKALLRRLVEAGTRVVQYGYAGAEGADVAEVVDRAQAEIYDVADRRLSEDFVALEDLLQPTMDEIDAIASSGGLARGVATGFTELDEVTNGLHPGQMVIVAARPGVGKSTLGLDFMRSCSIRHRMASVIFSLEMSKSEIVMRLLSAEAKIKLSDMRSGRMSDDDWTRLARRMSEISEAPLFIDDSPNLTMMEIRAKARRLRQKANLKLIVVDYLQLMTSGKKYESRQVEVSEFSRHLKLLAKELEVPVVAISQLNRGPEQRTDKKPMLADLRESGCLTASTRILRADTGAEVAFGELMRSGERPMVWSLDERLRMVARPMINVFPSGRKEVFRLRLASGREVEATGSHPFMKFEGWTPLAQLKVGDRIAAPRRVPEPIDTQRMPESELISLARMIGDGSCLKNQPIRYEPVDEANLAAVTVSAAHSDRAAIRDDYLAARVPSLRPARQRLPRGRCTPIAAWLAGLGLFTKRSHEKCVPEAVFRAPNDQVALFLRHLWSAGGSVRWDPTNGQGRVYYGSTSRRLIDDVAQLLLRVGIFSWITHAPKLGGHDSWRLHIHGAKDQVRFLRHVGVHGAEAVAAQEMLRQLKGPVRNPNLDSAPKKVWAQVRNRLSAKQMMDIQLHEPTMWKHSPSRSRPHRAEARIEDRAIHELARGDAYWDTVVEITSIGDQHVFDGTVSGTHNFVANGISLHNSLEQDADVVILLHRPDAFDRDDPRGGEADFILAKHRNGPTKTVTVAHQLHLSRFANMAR

[7] = loss of viability in HepG2 cells – cell-based, CellTiter-Glo, cherry-picked, cytotoxicity control for Shn3 inhibitor project, dose response (AID 624134)
[8] = target: T2, High affinity choline transporter 1; assay: human choline transporter blockers, potency – cell-based, 5-point CRC, membrane potential dye, dose response (AID 504840)
[9] = test system: Vero; assay: cells; conditions: Chlorocebus sabaeus
[10] = reduction of Shn3 3'UTR-driven luciferase in osteoblasts – cell-based, Clone20 osteoblasts, firefly luciferase, cherry-picked, dose response (AID 624132);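 note: firefly luciferase luminescence from reporter carrying the Shn3 3'UTR in osteoblasts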

Compound	IC50 [1]	IC50 [2]	IC50 [3]	AC50 [4]	EC50 [5]	AC50 [6]	AC50 [7]	IC50 [8]	CC50 [9]	AC50 [10]
O=c1c(-c2cccc(F)c2)c(Br)cnn1Cc1cccc2ccccc12	533 nM (active)	533 nM (active)	–	–	–	–	–	–	–	–
Cc1nnc(NC(=O)c2nc(S(=O)(=O)Cc3ccccc3)ncc2Cl)s1	–	–	4.47 µM (active)	12.8 µM (active)	4.01 µM (active)	17.8 µM (active)	> 70 µM (inactive)	7.31 µM (active)	17.8 µM (active)	1.34 µM (active)
